Assay results: the NIST ThermoML archive (doi:10.1016/j.jct.2016.03.012)

Test: wn = mass fraction of the nth substance listed
Details: 101 kPa, Liquid; for viscosity: Capillary tube (Ostwald / Ubbelohde) method; for speed of sound: Frequency=3 MHz, Linear variable-path acoustic interferometer; for mass density: Pycnometric method

O=C[C@@H](O)[C@@H](O)[C@H](O)[C@H](O)CO [D-mannose] + O
Details	mass density, w1 = 0.025 [kg/m3]	mass density, w1 = 0.05 [kg/m3]	speed of sound, w1 = 0.025 [m/s]	speed of sound, w1 = 0.05 [m/s]	viscosity, w1 = 0.025 [mPa·s]	viscosity, w1 = 0.05 [mPa·s]
293.15 K	–	1017.15	1495.7	1508.3	1.074	1.146
298.15 K	–	1016.04	1506.6	1516.6	0.9514	1.007
303.15 K	1005.29	1014.73	1516.9	1525.2	0.8479	0.8925
308.15 K	1003.71	1013.21	1526.9	1534.1	0.7636	0.8017
313.15 K	1001.93	1011.5	1535.2	1542.6	0.6922	0.7265
318.15 K	999.95	1009.58	1543	1551	0.6347	0.6654
